SMILES strings stand for the structures.

The assay deals with Mus musculus. Nature of the assay: Compound was evaluated for antinociceptive potency by subcutaneous administration in mice using the hotplate assay. As to conditions: sc. The format is functional.
Molecule `CC1[C@@H]2Cc3ccc(O)cc3[C@@]1(C)CCN2CCc1ccccc1` (some centres undefined) showed an ED50 of 0.1 mg/kg.
The same measure for `C[C@H]1C2Cc3ccc(O)cc3[C@]1(C)CCN2C`: 2.6 mg/kg; for `Oc1cccc([C@@]23CCC[C@@H](C2)N(CCc2ccccc2)CC3)c1`: 3.99 mg/kg; for `CN1CC[C@]2(c3cccc(O)c3)CCC[C@H]1C2`: 2 mg/kg.

(Values after ChEMBL document CHEMBL1126050, “Edward E. Smissman-Bristol-Myers Squibb Award Address. The role of concepts in structure-activity relationship studies of opioid ligands” (1992).)
